{
  "source": "paper PMC9890585",
  "about": "(Chemical Science, 2022)",
  "target": "Concanavalin A (Con A) (Canavalia ensiformis, UniProt P02866)",
  "format": "biochemical, jack bean (Canavalia ensiformis)",
  "details": "1000 equiv. added after 180 min",
  "data": [
    {"smiles": "COC1OC(CO)C(O)C(O)C1O", "note": "[methyl-α-D-mannose]", "values": [
      {"measurement": "effect of competitive inhibitor on Con A-complex aggregates", "result": "immediate deaggregation"}
    ]}
  ]
}
